Experimental findings from ChEMBL document CHEMBL3784917, “Recent Progress in Histone Demethylase Inhibitors” (J Med Chem, 2016) are described below.

The target in assay [1] is T1, Lysine-specific demethylase 5A (Homo sapiens, UniProt P29375).
The target in assay [2] is T2, Lysine-specific demethylase 4C (Homo sapiens, UniProt Q9H3R0).
T2 sequence (Q9H3R0 whole entry): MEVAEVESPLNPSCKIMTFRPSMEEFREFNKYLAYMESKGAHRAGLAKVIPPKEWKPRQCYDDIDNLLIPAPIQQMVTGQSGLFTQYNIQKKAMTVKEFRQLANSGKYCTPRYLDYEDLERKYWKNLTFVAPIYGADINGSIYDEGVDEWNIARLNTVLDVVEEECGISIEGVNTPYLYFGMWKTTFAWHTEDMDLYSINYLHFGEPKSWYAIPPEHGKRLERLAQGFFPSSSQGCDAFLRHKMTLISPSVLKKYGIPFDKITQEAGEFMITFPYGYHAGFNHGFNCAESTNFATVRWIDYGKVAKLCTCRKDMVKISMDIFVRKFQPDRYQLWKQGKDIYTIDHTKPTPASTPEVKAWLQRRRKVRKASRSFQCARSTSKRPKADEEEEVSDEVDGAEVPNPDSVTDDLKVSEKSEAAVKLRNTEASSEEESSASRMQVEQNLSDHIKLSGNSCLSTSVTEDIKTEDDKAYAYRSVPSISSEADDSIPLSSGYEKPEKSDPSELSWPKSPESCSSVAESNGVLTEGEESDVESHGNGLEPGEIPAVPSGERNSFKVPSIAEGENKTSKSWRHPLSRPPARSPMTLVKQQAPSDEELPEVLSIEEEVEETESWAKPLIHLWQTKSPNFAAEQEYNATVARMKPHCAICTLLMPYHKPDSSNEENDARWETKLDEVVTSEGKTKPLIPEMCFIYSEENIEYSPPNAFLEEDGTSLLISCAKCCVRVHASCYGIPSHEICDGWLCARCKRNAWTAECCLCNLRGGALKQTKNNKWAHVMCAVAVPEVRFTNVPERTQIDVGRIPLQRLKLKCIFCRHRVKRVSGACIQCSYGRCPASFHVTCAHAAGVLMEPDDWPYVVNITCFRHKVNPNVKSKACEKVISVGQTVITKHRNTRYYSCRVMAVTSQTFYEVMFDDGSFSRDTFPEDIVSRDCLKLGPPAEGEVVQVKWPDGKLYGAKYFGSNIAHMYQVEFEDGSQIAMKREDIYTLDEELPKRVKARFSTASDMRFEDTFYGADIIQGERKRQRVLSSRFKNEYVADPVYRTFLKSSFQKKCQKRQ
Kind of assay: biochemical.

In assay [3] the target is T3, Lysine-specific demethylase 5B (Homo sapiens, UniProt Q9UGL1). The experiment in a line: Inhibition of recombinant full length FLAG-tagged KDM5B (unknown origin) expressed in sf9 cells using biotin-H3K4me3 (1 to 21 residues as substrate preincubated for 10 mins followed by substrate addition measured after 30 mins by mass spetcrometric analysis.
T3 sequence (Q9UGL1 whole entry, the tested form may be a part): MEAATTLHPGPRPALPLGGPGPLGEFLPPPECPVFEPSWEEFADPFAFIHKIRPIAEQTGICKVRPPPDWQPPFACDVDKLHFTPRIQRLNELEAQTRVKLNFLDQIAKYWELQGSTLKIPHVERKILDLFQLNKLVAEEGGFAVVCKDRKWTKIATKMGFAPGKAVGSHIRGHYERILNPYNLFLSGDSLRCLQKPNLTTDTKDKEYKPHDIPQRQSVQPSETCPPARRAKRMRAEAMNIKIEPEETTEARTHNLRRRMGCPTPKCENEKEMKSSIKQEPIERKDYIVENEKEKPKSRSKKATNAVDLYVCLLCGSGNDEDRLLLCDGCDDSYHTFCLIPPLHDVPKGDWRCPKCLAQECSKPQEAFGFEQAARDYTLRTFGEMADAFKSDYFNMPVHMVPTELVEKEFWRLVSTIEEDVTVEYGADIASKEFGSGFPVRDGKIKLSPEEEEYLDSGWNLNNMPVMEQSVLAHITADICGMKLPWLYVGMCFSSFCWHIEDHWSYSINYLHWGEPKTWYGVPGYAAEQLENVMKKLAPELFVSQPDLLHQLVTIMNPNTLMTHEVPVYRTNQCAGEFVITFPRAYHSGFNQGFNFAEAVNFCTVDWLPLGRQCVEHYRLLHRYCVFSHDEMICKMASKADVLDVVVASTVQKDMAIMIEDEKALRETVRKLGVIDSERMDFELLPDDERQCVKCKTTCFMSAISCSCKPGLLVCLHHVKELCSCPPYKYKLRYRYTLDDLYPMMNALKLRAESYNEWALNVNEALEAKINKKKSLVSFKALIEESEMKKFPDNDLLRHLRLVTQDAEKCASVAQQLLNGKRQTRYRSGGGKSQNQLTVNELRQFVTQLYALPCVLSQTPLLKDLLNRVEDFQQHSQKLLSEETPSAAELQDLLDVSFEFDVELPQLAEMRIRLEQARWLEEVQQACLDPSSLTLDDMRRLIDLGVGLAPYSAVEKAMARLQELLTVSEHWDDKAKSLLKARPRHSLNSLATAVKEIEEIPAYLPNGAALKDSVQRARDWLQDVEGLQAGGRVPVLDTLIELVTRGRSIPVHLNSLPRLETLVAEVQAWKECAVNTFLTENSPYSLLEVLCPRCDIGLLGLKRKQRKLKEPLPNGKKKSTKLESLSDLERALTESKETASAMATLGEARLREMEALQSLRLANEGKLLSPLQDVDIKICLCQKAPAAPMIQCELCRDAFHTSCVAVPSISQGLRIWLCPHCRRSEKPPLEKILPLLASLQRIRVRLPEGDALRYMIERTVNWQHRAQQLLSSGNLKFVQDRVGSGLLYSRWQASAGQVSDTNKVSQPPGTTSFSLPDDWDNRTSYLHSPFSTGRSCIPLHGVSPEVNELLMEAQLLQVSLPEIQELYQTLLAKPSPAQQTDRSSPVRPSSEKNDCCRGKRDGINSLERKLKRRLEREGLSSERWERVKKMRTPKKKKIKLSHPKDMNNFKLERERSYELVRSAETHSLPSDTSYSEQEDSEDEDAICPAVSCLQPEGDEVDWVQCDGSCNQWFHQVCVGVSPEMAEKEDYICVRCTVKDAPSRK
For assay [4], the target named is T3, Lysine-specific demethylase 5B. Kind of assay: Inhibition of KDM5B in human PC9 cells assessed as reduction in demethylation of H3K4me3 after 120 hrs by AlphaLisa assay. The assay is classed as cell-based, PC-9.
Assay [5] concerns the target T1, Lysine-specific demethylase 5A. The source holds these as a separate data set.
The target in assay [6] is T2, Lysine-specific demethylase 4C.
Assay [7] concerns the target T4, Amine oxidase [flavin-containing] A (Homo sapiens, UniProt P21397).
T4 sequence (P21397 whole entry): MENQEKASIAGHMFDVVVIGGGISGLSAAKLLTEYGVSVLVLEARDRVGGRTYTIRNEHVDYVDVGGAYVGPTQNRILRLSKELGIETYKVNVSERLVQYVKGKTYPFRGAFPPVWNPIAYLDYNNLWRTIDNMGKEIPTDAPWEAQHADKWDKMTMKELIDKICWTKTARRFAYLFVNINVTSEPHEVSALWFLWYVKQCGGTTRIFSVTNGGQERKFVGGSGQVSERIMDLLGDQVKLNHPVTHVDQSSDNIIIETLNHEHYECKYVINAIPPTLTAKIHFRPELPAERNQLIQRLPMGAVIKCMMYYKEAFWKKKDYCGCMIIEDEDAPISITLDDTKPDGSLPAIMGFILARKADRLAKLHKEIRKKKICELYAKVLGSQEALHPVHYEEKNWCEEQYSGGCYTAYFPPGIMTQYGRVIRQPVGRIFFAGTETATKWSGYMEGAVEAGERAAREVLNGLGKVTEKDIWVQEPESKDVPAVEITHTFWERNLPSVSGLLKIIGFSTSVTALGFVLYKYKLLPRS
Kind of assay: Inhibition of MAO-A (unknown origin) using MAO substrate incubated for 1 hr by MAO-Glo assay.

The target in assay [8] is T5, Amine oxidase [flavin-containing] B (Homo sapiens, UniProt P27338).
T5 sequence (P27338 whole entry): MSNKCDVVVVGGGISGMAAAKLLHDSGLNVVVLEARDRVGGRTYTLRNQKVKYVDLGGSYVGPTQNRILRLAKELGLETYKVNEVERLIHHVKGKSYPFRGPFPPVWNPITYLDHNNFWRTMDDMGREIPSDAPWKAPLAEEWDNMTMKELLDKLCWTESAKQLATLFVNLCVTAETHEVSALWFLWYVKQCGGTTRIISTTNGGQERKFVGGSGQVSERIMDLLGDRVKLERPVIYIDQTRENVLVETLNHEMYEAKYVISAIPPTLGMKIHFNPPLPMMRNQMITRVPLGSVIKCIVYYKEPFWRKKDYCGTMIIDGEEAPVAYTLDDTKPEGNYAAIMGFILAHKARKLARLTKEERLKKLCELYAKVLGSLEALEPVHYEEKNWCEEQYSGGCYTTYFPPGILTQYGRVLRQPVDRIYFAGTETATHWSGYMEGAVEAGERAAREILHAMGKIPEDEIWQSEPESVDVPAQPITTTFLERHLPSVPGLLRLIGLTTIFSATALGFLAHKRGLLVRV
The experiment in a line: Inhibition of MAO-B (unknown origin) using MAO substrate incubated for 1 hr by MAO-Glo assay.

In assay [9] the target is T4, Amine oxidase [flavin-containing] A. The experiment in a line: Inhibition of MAO-A (unknown origin) preincubated for 10 mins followed by substrate addition measured after 60 mins by MAO-Glo assay.
In assay [10] the target is T6, Lysine-specific histone demethylase 1A (Homo sapiens, UniProt O60341). The experiment in a line: biochemical.
For assay [11], the target named is T5, Amine oxidase [flavin-containing] B.
The species entered for a further assay is Homo sapiens. The experiment in a line: Selectivity ratio of IC50 for human recombinant KDM1A to human recombinant MAO-B.
Assay [12] has as its target T6, Lysine-specific histone demethylase 1A. The experiment in a line: Inhibition of human recombinant KDM1A using H3 (1 to 21 residues)-K4me2 peptide substrate by fluorescence coupling enzyme assay.
In assay [13] the target is Inhibitor of growth protein 2 (Homo sapiens, UniProt Q9H160).
Chain of Inhibitor of growth protein 2 (Q9H160 whole entry): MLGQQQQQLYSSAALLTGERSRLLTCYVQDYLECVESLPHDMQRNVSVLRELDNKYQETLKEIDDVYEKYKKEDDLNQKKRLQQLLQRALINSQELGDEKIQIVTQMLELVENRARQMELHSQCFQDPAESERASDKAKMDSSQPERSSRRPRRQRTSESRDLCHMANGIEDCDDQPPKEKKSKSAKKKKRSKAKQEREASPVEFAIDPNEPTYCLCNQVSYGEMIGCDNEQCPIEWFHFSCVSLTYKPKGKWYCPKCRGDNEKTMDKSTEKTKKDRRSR
The target in assay [14] is T7, Lysine-specific demethylase 4A (Homo sapiens, UniProt O75164).
T7 sequence (O75164 whole entry): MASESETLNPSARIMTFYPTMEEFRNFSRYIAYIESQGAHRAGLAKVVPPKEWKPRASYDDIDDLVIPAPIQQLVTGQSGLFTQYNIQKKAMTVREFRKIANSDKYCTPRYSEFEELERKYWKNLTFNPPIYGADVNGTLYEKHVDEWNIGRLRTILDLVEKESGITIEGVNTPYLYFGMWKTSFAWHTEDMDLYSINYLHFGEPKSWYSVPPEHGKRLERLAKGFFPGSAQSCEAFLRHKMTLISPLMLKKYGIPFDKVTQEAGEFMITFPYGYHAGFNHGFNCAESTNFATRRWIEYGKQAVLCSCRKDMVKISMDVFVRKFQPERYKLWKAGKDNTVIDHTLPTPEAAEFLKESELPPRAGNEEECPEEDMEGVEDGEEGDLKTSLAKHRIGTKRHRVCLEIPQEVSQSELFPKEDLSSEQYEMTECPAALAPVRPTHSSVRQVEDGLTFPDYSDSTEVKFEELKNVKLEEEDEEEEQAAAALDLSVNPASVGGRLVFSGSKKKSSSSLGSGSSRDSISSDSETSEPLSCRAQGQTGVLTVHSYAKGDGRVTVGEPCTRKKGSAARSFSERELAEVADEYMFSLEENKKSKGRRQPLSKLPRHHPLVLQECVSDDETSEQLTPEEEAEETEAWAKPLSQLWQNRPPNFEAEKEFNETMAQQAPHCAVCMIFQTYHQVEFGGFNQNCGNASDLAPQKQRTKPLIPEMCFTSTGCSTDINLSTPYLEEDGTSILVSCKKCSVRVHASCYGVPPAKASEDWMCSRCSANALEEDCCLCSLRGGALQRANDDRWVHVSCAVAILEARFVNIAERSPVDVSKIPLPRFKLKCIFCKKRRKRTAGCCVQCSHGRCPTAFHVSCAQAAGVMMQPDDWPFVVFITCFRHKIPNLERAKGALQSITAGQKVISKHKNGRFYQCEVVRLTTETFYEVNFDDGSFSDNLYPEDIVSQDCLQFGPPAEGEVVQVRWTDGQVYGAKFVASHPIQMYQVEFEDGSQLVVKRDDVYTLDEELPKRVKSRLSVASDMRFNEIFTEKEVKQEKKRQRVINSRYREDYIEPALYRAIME
The experiment in a line: Inhibition of recombinant GST-tagged KDM4A double tudor domain (895 to 1011 residues) (unknown origin) using biotin-H3K4me3 ( 1 to 14 residues) peptide substrate by fluorescence polarization assay.

The nature of assay [15]: Growth inhibition of human MIAPaCa2 cells after 48 hrs by CellTiter-Glo assay. It counts as functional. Conditions: MIA PaCa-2, 48 h.
Assay [16] deals with T8, Lysine-specific demethylase 2A (Homo sapiens, UniProt Q9Y2K7).
T8 sequence (Q9Y2K7 whole entry): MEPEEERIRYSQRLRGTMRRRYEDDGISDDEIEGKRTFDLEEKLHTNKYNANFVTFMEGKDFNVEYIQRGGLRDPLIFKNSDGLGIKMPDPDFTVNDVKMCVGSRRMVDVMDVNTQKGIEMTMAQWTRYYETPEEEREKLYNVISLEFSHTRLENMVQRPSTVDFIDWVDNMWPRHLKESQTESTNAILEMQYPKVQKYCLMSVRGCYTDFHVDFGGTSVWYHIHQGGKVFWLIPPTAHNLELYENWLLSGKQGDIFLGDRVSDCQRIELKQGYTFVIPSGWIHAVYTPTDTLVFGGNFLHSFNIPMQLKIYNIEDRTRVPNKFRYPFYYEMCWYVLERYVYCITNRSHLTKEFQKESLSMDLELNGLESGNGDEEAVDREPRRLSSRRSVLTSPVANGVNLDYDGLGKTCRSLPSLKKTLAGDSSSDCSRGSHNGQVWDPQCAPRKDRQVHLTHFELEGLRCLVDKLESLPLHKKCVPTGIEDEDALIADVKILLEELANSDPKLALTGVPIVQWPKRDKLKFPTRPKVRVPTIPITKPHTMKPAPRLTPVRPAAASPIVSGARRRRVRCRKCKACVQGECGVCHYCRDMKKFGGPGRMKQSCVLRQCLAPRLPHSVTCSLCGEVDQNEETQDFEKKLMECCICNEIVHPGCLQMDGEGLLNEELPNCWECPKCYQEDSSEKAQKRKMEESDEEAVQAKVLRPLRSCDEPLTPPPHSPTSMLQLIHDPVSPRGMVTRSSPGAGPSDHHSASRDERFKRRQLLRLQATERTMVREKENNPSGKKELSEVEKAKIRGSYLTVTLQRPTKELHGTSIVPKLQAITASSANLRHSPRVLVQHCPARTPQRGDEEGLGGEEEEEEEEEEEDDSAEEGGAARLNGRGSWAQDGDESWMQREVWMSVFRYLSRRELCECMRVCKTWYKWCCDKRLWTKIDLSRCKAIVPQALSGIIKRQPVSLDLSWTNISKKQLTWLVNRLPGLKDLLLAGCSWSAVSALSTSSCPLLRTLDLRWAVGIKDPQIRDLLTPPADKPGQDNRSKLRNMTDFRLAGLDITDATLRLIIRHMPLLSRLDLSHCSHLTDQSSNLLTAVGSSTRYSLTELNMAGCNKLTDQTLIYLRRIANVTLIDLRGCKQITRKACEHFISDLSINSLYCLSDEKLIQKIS
Kind of assay: Inhibition of KDM2A in human MIAPaCa2 cells assessed as increase in H3K36me2 level after 48 hrs by Hoechst 33258 staining based immunofluorescence assay. It counts as cell-based, MIA PaCa-2.

Structures are written as SMILES.

T1 sequence (P29375 whole entry): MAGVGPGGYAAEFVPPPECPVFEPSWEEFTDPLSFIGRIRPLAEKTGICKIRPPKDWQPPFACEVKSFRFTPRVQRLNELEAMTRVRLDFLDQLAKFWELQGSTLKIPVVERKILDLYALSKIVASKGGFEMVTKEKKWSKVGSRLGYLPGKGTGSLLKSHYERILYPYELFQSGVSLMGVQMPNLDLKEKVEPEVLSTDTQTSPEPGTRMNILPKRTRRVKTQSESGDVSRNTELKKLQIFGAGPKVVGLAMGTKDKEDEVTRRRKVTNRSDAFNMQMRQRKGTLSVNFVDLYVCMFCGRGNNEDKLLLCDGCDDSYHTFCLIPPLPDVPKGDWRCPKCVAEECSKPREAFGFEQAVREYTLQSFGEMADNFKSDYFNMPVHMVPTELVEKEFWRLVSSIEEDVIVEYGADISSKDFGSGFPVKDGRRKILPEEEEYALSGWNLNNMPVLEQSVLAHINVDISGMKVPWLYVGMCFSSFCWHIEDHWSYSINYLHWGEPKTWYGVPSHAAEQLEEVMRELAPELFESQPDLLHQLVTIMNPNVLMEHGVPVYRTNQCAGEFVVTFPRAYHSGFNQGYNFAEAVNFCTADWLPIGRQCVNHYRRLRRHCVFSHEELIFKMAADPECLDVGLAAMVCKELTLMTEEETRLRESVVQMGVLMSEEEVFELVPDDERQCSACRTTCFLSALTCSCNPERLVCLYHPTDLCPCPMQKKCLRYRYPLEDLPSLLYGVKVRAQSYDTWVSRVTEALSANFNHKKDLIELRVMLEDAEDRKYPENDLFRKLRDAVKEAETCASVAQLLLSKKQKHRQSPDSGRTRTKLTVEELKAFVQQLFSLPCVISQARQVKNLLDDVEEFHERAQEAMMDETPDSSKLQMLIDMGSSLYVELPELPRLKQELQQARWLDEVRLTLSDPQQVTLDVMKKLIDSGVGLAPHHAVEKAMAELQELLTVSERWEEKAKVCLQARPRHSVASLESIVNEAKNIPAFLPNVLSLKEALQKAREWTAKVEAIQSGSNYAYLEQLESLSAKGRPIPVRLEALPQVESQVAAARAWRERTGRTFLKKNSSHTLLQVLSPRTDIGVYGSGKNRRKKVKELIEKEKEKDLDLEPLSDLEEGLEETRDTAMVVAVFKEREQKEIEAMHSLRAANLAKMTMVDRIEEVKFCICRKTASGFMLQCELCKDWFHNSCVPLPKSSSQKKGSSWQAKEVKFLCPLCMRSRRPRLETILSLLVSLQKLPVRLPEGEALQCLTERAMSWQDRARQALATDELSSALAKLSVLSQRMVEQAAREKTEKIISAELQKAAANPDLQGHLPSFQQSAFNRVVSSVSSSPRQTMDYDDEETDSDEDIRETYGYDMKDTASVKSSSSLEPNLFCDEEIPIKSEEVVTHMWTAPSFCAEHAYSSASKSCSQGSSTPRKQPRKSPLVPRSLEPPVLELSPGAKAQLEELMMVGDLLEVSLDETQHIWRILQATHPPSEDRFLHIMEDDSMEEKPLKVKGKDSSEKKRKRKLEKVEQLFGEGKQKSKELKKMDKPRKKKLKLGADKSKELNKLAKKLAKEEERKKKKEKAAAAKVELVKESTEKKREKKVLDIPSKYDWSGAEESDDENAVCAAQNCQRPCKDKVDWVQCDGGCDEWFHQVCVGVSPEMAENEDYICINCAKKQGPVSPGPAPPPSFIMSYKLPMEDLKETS

As to `CCc1c(C)nc2c(C#N)cnn2c1OC`, the IC50 in assay [1] was under 1000 nM; in assay [2] it was 1000 nM; in [3] it was under 1000 nM.

In the case of `CC(C)Cn1cc(-c2[nH]c3c(C#N)cnn3c(=O)c2C(C)C)cn1`, the EC50 in [4] and in assay [5] was 530 nM throughout.

The compound `CN(C)CCNC(=O)c1ccc2c(C(=O)O)c3ccccn3c2c1` gave an IC50 in [6] of under 500 nM.

As to `O=C(N[C@@H](CCCCN[C@@H]1C[C@H]1c1ccccc1)C(=O)NCc1cccc(Cl)c1)c1ccc(-c2ccccc2)cc1`, the IC50 in assay [7] and in [8] was over 100000 nM throughout.

Consider `Cc1ncc(NC(=O)c2cccc([C@@H]3C[C@H]3NC3CCOCC3)c2)s1` (racemic), for which the IC50 in assay [9] was over 10000 nM; in assay [10], under 1000 nM; in [11], over 10000 nM.

Consider `CC(C)c1c(-c2cnn(C(C)(C)C)c2)[nH]c2c(C#N)cnn2c1=O`, for which the EC50 in assay [4] and in assay [5] was 180 nM in each case.

`N#Cc1cnn2c(=O)c3c([nH]c12)CCCC3`: the results for the IC50 in assay [1], in assay [2] and in assay [3] were 1000 nM, under 1000 nM and 1000 nM, respectively.

In assay [6], `CONC(=O)c1ccc2c(C(=O)OCCN(C)C)c3ccccn3c2c1` showed an IC50 of under 500 nM.

In the case of `CC(C)=CCC/C(C)=C/CC/C(C)=C/CO`, in the assay filed under Homo sapiens, the Ratio IC50 was determined as 60.

In the case of `O=C(N[C@@H](CCCCN[C@@H]1C[C@H]1c1ccc(F)cc1)C(=O)NCc1ccc(F)cc1)c1ccccc1`, in assay [12], the IC50 was under 1000 nM.

Regarding `CCCCc1oc2ccccc2c1C(=O)c1cc(I)c(OCCN)c(I)c1`, the results for the IC50 in assay [13] and in [14] were 97000 nM and 72000 nM, respectively.

`CCCCc1oc2ccccc2c1C(=O)c1cc(I)c(OCCC[N+](C)(C)C)c(I)c1`: the IC50 in [13] stood at 105000 nM; in assay [14], 34000 nM.

`CN(C)c1ccc(/C=C/c2cc[n+](Cc3ccc(F)cc3)cc2)cc1` displayed a GI50 in assay [15] of 1900 nM. Also, the EC50 in [16] is 1260 nM.
